From ChEMBL document CHEMBL3286342, “Design, synthesis, and structure-activity relationships of pyridoquinazolinecarboxamides as RNA polymerase I inhibitors” (J Med Chem, 2014)
The source made the active and inactive calls. No cut-off for these calls is given here.

Tests used:
[1] = system: U2OS; assay: Cytotoxicity against human U2OS cells assessed as loss of cell viability at 0.5 to 5 uM after 48 hrs by WST-1 assay; type: functional, cell-based
[2] = system: U2OS; conditions: Homo sapiens, 0.1 to 1 uM
Description: Inhibition of RNA polymerase-1 in human U2OS cells assessed as effect on nucleolin protein expression at 0.1 to 1 uM after 3 hrs by Western blot analysis

[3] = system: U2OS; conditions: Homo sapiens, 10 uM
Description: Inhibition of RNA polymerase-1 in human U2OS cells assessed as effect on nucleolin protein expression at 10 uM after 3 hrs by Western blot analysis

[4] = Inhibition of RNA polymerase-1 in human U2OS cells assessed as decrease in nucleolar localization of nucleolin after 3 hrs by epifluorescence microscopic analysis; type: cell-based
[5] = target: DNA-directed RNA polymerase I subunit RPA1 (Homo sapiens, UniProt O95602); conditions: u2os
Description: Induction of RNA polymerase-1 RPA194 subunit degradation in human U2OS cells after 3 hrs by epifluorescence microscopic analysis

[6] = system: Liver microsome; assay: Half life in human liver microsomes at 1 uM preincubated for 5 mins followed by beta-NADPH addition; type: ADME

DNA-directed RNA polymerase I subunit RPA1, sequence (O95602 whole entry): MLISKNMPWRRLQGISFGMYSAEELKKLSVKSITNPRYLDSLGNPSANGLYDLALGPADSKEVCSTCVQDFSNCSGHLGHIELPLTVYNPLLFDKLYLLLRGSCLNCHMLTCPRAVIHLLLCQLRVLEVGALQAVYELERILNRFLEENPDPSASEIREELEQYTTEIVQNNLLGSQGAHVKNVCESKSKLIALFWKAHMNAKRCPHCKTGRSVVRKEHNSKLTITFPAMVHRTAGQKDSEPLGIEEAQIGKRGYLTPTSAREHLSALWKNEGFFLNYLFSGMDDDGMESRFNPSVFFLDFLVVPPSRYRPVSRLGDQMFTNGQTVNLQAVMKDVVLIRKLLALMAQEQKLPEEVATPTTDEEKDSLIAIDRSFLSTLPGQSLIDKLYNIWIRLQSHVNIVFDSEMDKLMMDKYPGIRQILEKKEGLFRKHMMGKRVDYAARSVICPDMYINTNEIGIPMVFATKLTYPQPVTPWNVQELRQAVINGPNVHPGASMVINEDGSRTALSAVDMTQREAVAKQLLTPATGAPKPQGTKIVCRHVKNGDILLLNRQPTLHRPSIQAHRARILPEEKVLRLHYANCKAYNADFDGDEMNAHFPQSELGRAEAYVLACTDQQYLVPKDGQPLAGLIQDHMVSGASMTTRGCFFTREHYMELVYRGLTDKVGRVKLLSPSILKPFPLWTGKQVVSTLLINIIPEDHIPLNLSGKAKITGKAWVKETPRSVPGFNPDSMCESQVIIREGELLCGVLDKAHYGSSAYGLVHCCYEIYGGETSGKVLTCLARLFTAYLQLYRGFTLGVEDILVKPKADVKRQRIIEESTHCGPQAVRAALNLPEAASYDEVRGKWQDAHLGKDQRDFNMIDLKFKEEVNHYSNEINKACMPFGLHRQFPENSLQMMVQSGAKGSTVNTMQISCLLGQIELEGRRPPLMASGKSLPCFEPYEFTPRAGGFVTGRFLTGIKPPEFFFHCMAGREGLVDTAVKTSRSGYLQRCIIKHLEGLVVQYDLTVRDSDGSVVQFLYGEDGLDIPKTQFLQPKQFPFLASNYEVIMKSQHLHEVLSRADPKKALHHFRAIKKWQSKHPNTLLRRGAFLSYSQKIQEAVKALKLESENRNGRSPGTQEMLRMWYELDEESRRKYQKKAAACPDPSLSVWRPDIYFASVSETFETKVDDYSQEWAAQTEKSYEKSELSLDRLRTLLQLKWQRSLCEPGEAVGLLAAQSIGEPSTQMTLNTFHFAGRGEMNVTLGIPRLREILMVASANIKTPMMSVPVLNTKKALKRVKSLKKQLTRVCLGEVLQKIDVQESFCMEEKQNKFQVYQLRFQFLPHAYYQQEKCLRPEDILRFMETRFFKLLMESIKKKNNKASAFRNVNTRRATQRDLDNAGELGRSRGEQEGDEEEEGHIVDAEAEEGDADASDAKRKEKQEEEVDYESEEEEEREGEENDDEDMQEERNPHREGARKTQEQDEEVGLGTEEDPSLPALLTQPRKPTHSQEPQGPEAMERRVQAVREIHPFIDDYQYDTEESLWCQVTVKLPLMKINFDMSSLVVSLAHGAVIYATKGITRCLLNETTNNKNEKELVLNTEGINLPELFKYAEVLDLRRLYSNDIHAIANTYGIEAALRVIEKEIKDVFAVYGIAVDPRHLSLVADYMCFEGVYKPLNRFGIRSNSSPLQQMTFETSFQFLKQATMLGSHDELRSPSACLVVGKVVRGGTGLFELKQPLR

Structure (SMILES) | Activity [1] | inhibition [2] | inhibition [3] | IC50 [4] | IC50 [5] | t1/2 [6]
O=C(NCCN1CCOCC1)c1cccn2c(=O)c3cc4ccccc4cc3nc12 | inactive | inactive | Active |  |  | 
CCN(CC)C1CCN(C(=O)c2cccn3c(=O)c4cc5ccccc5cc4nc23)C1 (stereo not given) |  |  |  | 10.6 µM | 31.8 µM | 
CCN(CC)CCNC(=O)c1cccn2c(=O)c3cc4ccccc4cc3nc12 |  |  |  |  |  | 21 min
O=C(NCCN1CCCC1)c1cccn2c(=O)c3cc4ccccc4cc3nc12 | Active |  |  |  |  | 33 min
O=C(NCCN1CCCCC1)c1cccn2c(=O)c3cc4ccccc4cc3nc12 | Active | inactive | Active |  |  | 25 min
CN(C)CCN(C)C(=O)c1cccn2c(=O)c3cc4ccccc4cc3nc12 | inactive | inactive | Active | > 100 µM |  | 
COCCN(C)CCNC(=O)c1cccn2c(=O)c3cc4ccccc4cc3nc12 |  |  |  |  |  | 14 min
CN(C)CCNC(=O)c1cccn2c(=O)c3cc4ccccc4cc3nc12 | Active | inactive | Active | 0.07 µM |  | 57 min
CC(CN(C)C)NC(=O)c1cccn2c(=O)c3cc4ccccc4cc3nc12 (stereo not given) |  | inactive | Active |  |  | 54 min
CN(C)CCCCNC(=O)c1cccn2c(=O)c3cc4ccccc4cc3nc12 | inactive | inactive | Active |  |  | 
CN(C)CCOC(=O)c1cccn2c(=O)c3cc4ccccc4cc3nc12 |  |  |  | 12.3 µM | 50.9 µM | 
CN1CCN(CCNC(=O)c2cccn3c(=O)c4cc5ccccc5cc4nc23)CC1 |  |  |  |  |  | 43 min
CC(CNC(=O)c1cccn2c(=O)c3cc4ccccc4cc3nc12)N(C)C (stereo not given) | Active |  |  |  |  | 43 min
CN(C)CCNC(=O)c1cccn2c(=O)c3ccccc3nc12 | inactive | inactive | Active | 3.17 µM | 2.17 µM | 
CCN(CC)CCNC(=O)c1cccn2c(=O)c3ccccc3nc12 |  |  |  | 3.28 µM | 1.35 µM | 
